The target of test [1] is T1, Tubulin (Homo sapiens) (UniProt P68371+Q9H4B7+P0DPH7+P68366+Q13509+Q71U36+P04350+Q3ZCM7+P07437+P68363+Q9BQE3+Q6PEY2+Q13885+Q9BVA1+Q9BUF5). In words: Binding affinity to microtubules, activity expressed as ID50 of compound/ID50 of paclitaxel. In kind it is protein-complex assay.
In test [2] the target is T1, Tubulin (Homo sapiens). In words: Binding affinity to microtubules, activity expressed as log 1/ID50 of compound/ID50 of paclitaxel. The class given is protein-complex assay.

SMILES strings stand for the structures.

In the case of `CC(=O)O[C@H]1C[C@]2(C)[C@@H](O)C[C@H]3OC[C@@]3(OC(C)=O)[C@H]2[C@H](OC(=O)c2ccccc2)[C@@]2(O)C[C@H](OC(=O)[C@H](O)[C@@H](NC(=O)c3ccccc3)c3ccccc3)C(C)C1C2(C)C` (stereo partly specified), the ID50 ratio on Tubulin (Homo sapiens) [1] was 3. The Log 1/ratio on Tubulin (Homo sapiens) [2] is -0.477.

As to `CC(=O)O[C@@]12CO[C@@H]1C[C@H](O)[C@@]1(C)C(=O)[C@H](O)C3=C(C)[C@@H](OC(=O)[C@@H](O)[C@H](NC(=O)OC(C)(C)C)c4ccccc4)C[C@@](O)([C@@H](OC(=O)c4ccccc4)[C@H]21)C3(C)C`, the ID50 ratio at Tubulin (Homo sapiens) [1] is 30. Further, on Tubulin (Homo sapiens) [2], the Log 1/ratio is -1.48.

With `CC(=O)O[C@H]1C(=O)[C@@]2(C)[C@H]([C@H](OC(=O)c3ccccc3)[C@]3(O)C[C@H](OC(=O)[C@H](O)[C@@H](NC(=O)c4ccccc4)c4ccc(C)cc4)C(C)=C1C3(C)C)[C@]1(OC(C)=O)CO[C@@H]1C[C@@H]2O`, the ID50 ratio at Tubulin (Homo sapiens) [1] stood at 2.4. For the same compound, the Log 1/ratio on Tubulin (Homo sapiens) [2] is -0.38.

Regarding `C/C=C/C(=O)O[C@H]1C[C@@]2(O)[C@@H](OC(=O)c3ccccc3)[C@@H]3[C@]4(OC(C)=O)CO[C@@H]4C[C@H](O)[C@@]3(C)C(=O)[C@H](OC(C)=O)C(=C1C)C2(C)C`, the ID50 ratio on Tubulin (Homo sapiens) [1] came to 100. For the same compound, the Log 1/ratio on Tubulin (Homo sapiens) [2] was -2.

On to `CC(=O)O[C@H]1C(=O)[C@@]2(C)[C@H]([C@H](OC(=O)c3ccccc3)[C@]3(O)C[C@H](OC(=O)[C@@H](NC(=O)c4ccccc4)[C@H](O)c4ccccc4)C(C)=C1C3(C)C)[C@]1(OC(C)=O)CO[C@@H]1C[C@@H]2O`, for which, on Tubulin (Homo sapiens) [1], the ID50 ratio turned out to be 110. Also, on Tubulin (Homo sapiens) [2], the Log 1/ratio is -2.04.

Turning to `CC(=O)O[C@@]12CO[C@@H]1C[C@H](O)[C@@]1(C)C(=O)[C@H](O)C3=C(C)[C@@H](OC(=O)[C@@H](O)[C@@H](NC(=O)c4ccccc4)c4ccccc4)C[C@@](O)([C@@H](OC(=O)c4ccccc4)[C@H]21)C3(C)C`, the ID50 ratio at Tubulin (Homo sapiens) [1] is 1.3. At Tubulin (Homo sapiens) [2], the Log 1/ratio was -0.114.

In the case of `CC(=O)O[C@@]12CO[C@@H]1C[C@H](O)[C@@]1(C)C(=O)[C@H](O)C3=C(C)[C@@H](OC(=O)[C@H](O)[C@@H](NC(=O)CCCC(=O)O)c4ccccc4)C[C@@](O)([C@@H](OC(=O)c4ccccc4)[C@H]21)C3(C)C`, the ID50 ratio on Tubulin (Homo sapiens) [1] is 1. In addition, on Tubulin (Homo sapiens) [2], the Log 1/ratio was found to be 0.

Regarding `CC(=O)O[C@H]1C(=O)[C@@]2(C)[C@H]([C@H](OC(=O)c3ccccc3)[C@]3(O)C[C@H](OC(=O)[C@H](O)[C@@H](N)c4ccccc4)C(C)=C1C3(C)C)[C@]1(OC(C)=O)CO[C@@H]1C[C@@H]2O`, at Tubulin (Homo sapiens) [1], the ID50 ratio came to 44. Further, on Tubulin (Homo sapiens) [2], the Log 1/ratio is -1.64.

On to `CC(=O)O[C@@]12CO[C@@H]1C[C@H](O)[C@@]1(C)C(=O)[C@H](O)C3=C(C)[C@@H](OC(=O)[C@H](O)[C@@H](NC(=O)OC(C)(C)C)c4ccccc4)C[C@@](O)([C@@H](OC(=O)c4ccccc4)[C@H]21)C3(C)C` (stereo in doubt; 39), for which the ID50 ratio on Tubulin (Homo sapiens) [1] came out at 0.5. The Log 1/ratio at Tubulin (Homo sapiens) [2] came to 0.301.

Take `CC(=O)O[C@@]12CO[C@@H]1C[C@H](O)[C@@]1(C)C(=O)[C@H](O)C3=C(C)[C@@H](OC(=O)[C@@H](O)Cc4ccccc4)C[C@@](O)([C@@H](OC(=O)c4ccccc4)[C@H]21)C3(C)C`: at Tubulin (Homo sapiens) [1], the ID50 ratio stood at 3.5. For the same compound, the Log 1/ratio on Tubulin (Homo sapiens) [2] was -0.544.

Consider `CC(=O)O[C@H]1C(=O)[C@]2(C)[C@@H](OC(=O)[C@H](O)[C@@H](O)[C@H](O)CO)C[C@H]3OC[C@@]3(OC(C)=O)[C@H]2[C@H](OC(=O)c2ccccc2)[C@]2(O)C[C@H](OC(=O)[C@H](O)[C@@H](NC(=O)c3ccccc3)c3ccccc3)C(C)=C1C2(C)C`, for which, on Tubulin (Homo sapiens) [1], the ID50 ratio was 0.4. On Tubulin (Homo sapiens) [2], the Log 1/ratio was -0.398.

Consider `CC(=O)O[C@@]12CO[C@@H]1C[C@H](O)[C@@]1(C)C(=O)[C@H](O)C3=C(C)[C@@H](OC(=O)[C@H](O)[C@H](NC(=O)c4ccccc4)c4ccccc4)C[C@@](O)([C@@H](OC(=O)c4ccccc4)[C@H]21)C3(C)C`, for which, at Tubulin (Homo sapiens) [1], the ID50 ratio is 1.3. Besides, the Log 1/ratio at Tubulin (Homo sapiens) [2] was -0.114.

Consider `CC(=O)O[C@H]1C(=O)[C@@]2(C)[C@H]([C@H](OC(=O)c3ccccc3)[C@]3(O)C[C@H](OC(=O)[C@H](O)[C@@H](NC(=O)c4ccccc4)c4ccc5ccccc5c4)C(C)=C1C3(C)C)[C@]1(OC(C)=O)CO[C@@H]1C[C@@H]2O`, for which the ID50 ratio on Tubulin (Homo sapiens) [1] is 7.1. In addition, the Log 1/ratio on Tubulin (Homo sapiens) [2] was -0.851.

`CC(=O)O[C@@]12CO[C@@H]1C[C@H](O)[C@@]1(C)C(=O)[C@H](O)C3=C(C)[C@@H](OC(=O)[C@@H](NC(=O)c4ccccc4)[C@H](O)c4ccccc4)C[C@@](O)([C@@H](OC(=O)c4ccccc4)[C@H]21)C3(C)C`: the ID50 ratio on Tubulin (Homo sapiens) [1] turned out to be 170. In addition, the Log 1/ratio on Tubulin (Homo sapiens) [2] is -2.23.

Take `CC(=O)O[C@@]12CO[C@@H]1C[C@H](OC(=O)CN)[C@@]1(C)C(=O)[C@H](OC(=O)CN)C3=C(C)[C@@H](OC(=O)[C@H](O)[C@@H](NC(=O)OC(C)(C)C)c4ccccc4)C[C@@](O)([C@@H](OC(=O)c4ccccc4)[C@H]21)C3(C)C`: on Tubulin (Homo sapiens) [1], the ID50 ratio stood at 1.2. In addition, the Log 1/ratio on Tubulin (Homo sapiens) [2] is -0.0792.

Regarding `CC(=O)O[C@@]12CO[C@@H]1C[C@H](O)[C@@]1(C)C(=O)[C@H](O)C3=C(C)[C@@H](OC(=O)[C@H](O)Cc4ccccc4)C[C@@](O)([C@@H](OC(=O)c4ccccc4)[C@H]21)C3(C)C`, at Tubulin (Homo sapiens) [1], the ID50 ratio was 4.5. For the same compound, at Tubulin (Homo sapiens) [2], the Log 1/ratio was -0.653.

On to `CC(=O)O[C@H]1C(=O)[C@@]2(C)[C@H]([C@H](OC(=O)c3ccccc3)[C@]3(O)C[C@H](OC(=O)[C@H](NC(=O)OC(C)(C)C)[C@@H](O)c4ccccc4)C(C)=C1C3(C)C)[C@]1(OC(C)=O)CO[C@@H]1C[C@@H]2O`, for which the ID50 ratio at Tubulin (Homo sapiens) [1] is 10. The Log 1/ratio on Tubulin (Homo sapiens) [2] was -1.

As to `CC(=O)O[C@@]12CO[C@@H]1C[C@H](O)[C@@]1(C)C(=O)[C@H](O)C3=C(C)[C@@H](OC(=O)[C@H](O)[C@@H](NC(=O)c4ccccc4)c4ccccc4)C[C@@](O)([C@@H](OC(=O)c4ccccc4)[C@H]21)C3(C)C`, at Tubulin (Homo sapiens) [1], the ID50 ratio was determined as 1.3. Further, the Log 1/ratio at Tubulin (Homo sapiens) [2] is -0.114.

In the case of `CC(=O)O[C@@]12CO[C@@H]1C[C@H](O)[C@@]1(C)C(=O)[C@H](O)C3=C(C)[C@@H](OC(=O)[C@H](NC(=O)c4ccccc4)[C@@H](O)c4ccccc4)C[C@@](O)([C@@H](OC(=O)c4ccccc4)[C@H]21)C3(C)C`, at Tubulin (Homo sapiens) [1], the ID50 ratio worked out at 10. Moreover, the Log 1/ratio at Tubulin (Homo sapiens) [2] was -1.

As for `CC(=O)O[C@H]1C(=O)[C@@]2(C)[C@H]([C@H](OC(=O)c3ccccc3)[C@]3(O)C[C@H](OC(=O)[C@H](NC(=O)c4ccccc4)[C@@H](O)c4ccccc4)C(C)=C1C3(C)C)[C@]1(OC(C)=O)CO[C@@H]1C[C@@H]2O`, the ID50 ratio at Tubulin (Homo sapiens) [1] was 10. For the same compound, the Log 1/ratio on Tubulin (Homo sapiens) [2] was -1.

For `CC(=O)O[C@@]12CO[C@@H]1C[C@H](O)[C@@]1(C)C(=O)[C@H](O)C3=C(C)[C@@H](OC(=O)[C@H](O)[C@H](N)c4ccccc4)C[C@@](O)([C@@H](OC(=O)c4ccccc4)[C@H]21)C3(C)C`, the ID50 ratio on Tubulin (Homo sapiens) [1] turned out to be 30. For the same compound, on Tubulin (Homo sapiens) [2], the Log 1/ratio is -1.48.

Consider `CC(=O)O[C@H]1C(=O)[C@@]2(C)[C@H]([C@H](OC(=O)c3ccccc3)[C@]3(O)C[C@H](OC(=O)[C@H](O)[C@@H](NC(=O)c4ccccc4)c4ccccc4)C(C)=C1C3(C)C)[C@]1(OC(C)=O)CO[C@@H]1C[C@@H]2O` (stereo in doubt; 14), for which the ID50 ratio at Tubulin (Homo sapiens) [1] is 0.8. The Log 1/ratio on Tubulin (Homo sapiens) [2] is 0.0969.

Turning to `CC(=O)O[C@@]12CO[C@@H]1C[C@H](O)[C@@]1(C)C(=O)[C@H](O)C3=C(C)[C@@H](OC(=O)[C@H](NC(=O)OC(C)(C)C)[C@@H](O)c4ccccc4)C[C@@](O)([C@@H](OC(=O)c4ccccc4)[C@H]21)C3(C)C`, on Tubulin (Homo sapiens) [1], the ID50 ratio worked out at 10. Further, the Log 1/ratio on Tubulin (Homo sapiens) [2] was -1.

Source of the values: ChEMBL document CHEMBL1127973, “A comparative molecular field analysis derived model of the binding of taxol analogues to microtubules” (Bioorg Med Chem Lett, 1994).
